Data set [1] relates to M. tuberculosis H37Rv. Description: Minimal inhibitory concentration (MIC) resazurin assay. Format: cell-based, Mycobacterium tuberculosis. For orientation: Alamar Blue is a resazurin reagent that responds to reducing activity.
The subject of data set [2] is human cell lines MRC-5, HEK-293, THP-1. Format: cell-based. On the procedure: For the determination of the cytotoxicity of the compounds, different human cell lines were used. The human fetal lung fibroblast cell line MRC-5 (American Type Culture Collection) was incubated in Eagle’s Minimum Essential Medium (EMEM) containing 1% (v/v) Na-pyruvate, whereas the human embryonic kidney cell line HEK-293 (CLS Cell Lines Service GmbH) was cultivated in EMEM supplemented with 2 mM L-glutamine, 1% (v/v) non-essential amino acids, and 1 mM sodium pyruvate. The human monocyte cell line THP-1 (Deutsche Sammlung von Mikroogranismen und Zellkulturen GmbH) was cultured in RPMI 1640 medium. All media were supplemented with 10% (v/v) heat-inactivated fetal bovine serum (FBS).
The cell densities were quantified using a hemocytometer and then adjusted to 10^6 cells/mL. Next, 100 µL per well were seeded in 96-well microtiter plates to yield an inoculation cell density of […] cells per well. Compounds were added employing two-fold serial dilutions resulting in final concentrations ranging from 100 to 0.78 µM. Cells were incubated for two days at 37 °C and 5% CO2 in a humidified atmosphere. […] Fluorescence was measured in a TECAN microplate reader (excitation of 540 nm, emission of 590 nm). The percentage of growth was calculated with respect to DMSO (100% growth) and Triton X-100 (0% growth) controls.

A short description of data set [3]: Chemical stability in phosphate buffer (HPLC-UV). It counts as physicochemical. The procedure:
Stability testing was performed in phosphate buffer pH 2.0 and 7.4 (prepared according to Ph. Eur. 10) at 20 °C over a period of 48 h. Therefore, 0.4 mg of substance was dissolved in Tween® 20 und ethanol (7/3 v/v) and diluted with the respective phosphate buffer. The solution was shaken with an IKA KS 260 basic (250 min^−1) at 25 °C for 48 h. Analysis was performed after 1, 3, 6, 24, and 48 h by comparing the area under the curve (A.U.C.), which was measured with HPLC-UV at 254 nm (n = 1).

A short description of data set [4]: Single-point metabolic stability in human liver microsomes. Format: in vitro ADME. The procedure: The metabolic stability assay was performed in Human Liver Microsomes (HLM) using a single-point metabolic stability assay. Briefly, the compounds were incubated at 1 μM in 0.4 mg/mL human mixed-gender liver microsomes (Xenotech, Kansas City, KS, USA, pool of 50) for 30 min at 37 °C. Reactions were quenched by adding ice-cold acetonitrile containing internal standard. The samples were then centrifuged and analyzed by LC-MS/MS for the disappearance of the parent compound. Half-life, clearance, and hepatic […] ratios were determined using standard equations [47, 48]. Propranolol and midazolam were used as positive controls and treated similarly.
On the technique in general: Liver microsomes are vesicles of endoplasmic reticulum, rich in cytochrome P450 enzymes.

Assay in data set [5]: not given
This is another data set of the same source.

In data set [6] the test system is M. tuberculosis H37Rv. The arrangement: method as in Rehberg et al. [14]. To be noted: ref Rehberg et al. [14], cited from earlier work.
Data set [7] relates to Mtb XDR clinical isolates. The note with it: ref Rehberg et al. [14]; cited from earlier work.
Data set [8] can be described thus: physchem. The note with it: pH 7.4.
The nature of data set [9]: physchem.
For data set [10], the system named is human fetal lung fibroblast cell line MRC-5. To be noted: ref Rehberg et al. [14]; cited from earlier work.
The test system of another data set is monocyte cell line THP-1. To be noted: ref Rehberg et al. [14]; cited from earlier work.
The test system of another data set is Mtb. Further details: method as in PMID 9818746. The note with it: Mtb-infected mice; cited from earlier work.

Molecules are shown by their SMILES. Values after ≈ are worked out from the molar mass of the structure shown.

Take `COc1cc(O)c2c(=O)c(OC)c(-c3cccc(Br)c3OC(F)F)oc2c1OC`: the melting point (commonly the temperature, or range, at which the solid turns liquid) came out at 162.4 °C.

`COc1cc(O)c2c(=O)c(OC)c(-c3cccc(Br)c3O)oc2c1OC` [BF, bromflavonin]: the “Minimal Inhibitory Concentrations (MIC90)” value with M. tuberculosis H37Rv [1] is 0.78 μm. In addition, the antimycobacterial activity result with M. tuberculosis H37Rv [1] (Mtb H37Rv, in words) is given as “submicromolar”. In addition, the “cytotoxicity toward human cells” value in data set [2] is “no cytotoxicity”. Moreover, the “drug content after 48 h” value in data set [3] (phosphate buffer pH 2.0, 48 h) amounted to 99%; in data set [3] (phosphate buffer pH 7.4, 48 h), 99%. Moreover, the “CLint, app (predicted in vivo intrinsic clearance)” value in data set [4] is listed as 53.4. Also, in [5], the “Water solubility at pH 7.4” value is under 5 μM.

As for `COc1cc(O)c2c(=O)c(OC)c(-c3cccc(C(F)(F)F)c3O)oc2c1OC` [Compound 1d], the melting point amounted to 195.4 °C.

`COc1cc(O)c2c(=O)c(OC)c(-c3ccc(Cl)cc3O)oc2c1OC` yielded a melting point of 240.7 °C.

Take `COc1cc(O)c2c(=O)c(OC)c(-c3cccc(Cl)c3O)oc2c1OC` [CF, chlorflavonin]: the melting point is 213.7 °C. For the same molecule, the “drug content after 48 h” value in data set [3] (phosphate buffer pH 2.0, 48 h) worked out at 99%. Besides, the “drug content after 48 h” value in data set [3] (phosphate buffer pH 7.4, 48 h) was found to be 99%. In addition, in data set [4] (1 μM, human liver microsomes 0.4 mg/mL, 30 min, 37 °C), the “remaining after 30 min” value came out at 48%. Besides, in the data set with M. tuberculosis H37Rv [6] (mono treatment with CF), the “effect of mono treatment” value was “bacteriostatic effect”. In the data set with M. tuberculosis H37Rv [6] (virulent Mtb H37Rv, in vitro growth inhibition), the MIC90 – broadly, the lowest concentration that inhibits either 90% of growth or 90% of the strains tested, depending on the study – is 1.56 µM (≈ 0.591 µg/mL). Also, the combination effect entry in the data set on M. tuberculosis H37Rv [6] (with delamanid and isoniazid, including intracellular activity against infected human macrophages) is “synergistic efficacy”. Further, the “in vitro growth inhibition” value in data set [7] is reported as “strong in vitro growth inhibition”. Besides, the solubility (usually the concentration that dissolves in the medium under given conditions) at 24 h in “physchem [8]” is under 5 µM. In addition, in the data set “physchem [9]” (pKa1 (2′-OH)), the pKa (usually the negative logarithm of the acid dissociation constant) was determined as 6.8 ± 0.07. Further, in “physchem [9]” (pKa2 (5-OH)), the pKa was 10.4. The cytotoxicity entry in data set [10] is reported as “no cytotoxicity”. The cytotoxicity result in the data set on monocyte cell line THP-1 is given as “no cytotoxicity”.

In turn, `COc1cc(O)c2c(=O)c(OC)c(-c3cccc(C)c3O)oc2c1OC` had a melting point of 213.3 °C.

For the molecule `COc1cc(O)c2c(=O)c(OC)c(-c3cc(F)cc(Br)c3O)oc2c1OC` [Compound 1i], the melting point worked out at 251.4 °C.

For `COc1cc(O)c2c(=O)c(OC)c(-c3cccc(Cl)c3Cl)oc2c1OC`, the melting point came out at 184.8 °C.

`COc1cc(O)c2c(=O)c(OC)c(-c3ccc(Cl)c(O)c3)oc2c1OC` had a melting point of 48 °C.

Turning to `COc1cc(O)c2c(=O)c(OC)c(-c3cccc(Br)c3F)oc2c1OC` [Compound 1f], the melting point stood at 217.4 °C.

With `COc1cc(O)c2c(=O)c(OC)c(-c3cccc(Cl)c3)oc2c1OC`, the melting point amounted to 188.3 °C.

`COc1cc(O)c2c(=O)c(OC)c(-c3cccc(Br)c3O)oc2c1OC` [Compound 1a] registered a melting point of 210.2 °C.

`COc1cc(O)c2c(=O)c(OC)c(-c3cc(F)cc(Cl)c3O)oc2c1OC` yielded a melting point of 245 °C.

As to `COC(=O)c1ccccc1S(=O)(=O)NC(=O)Nc1nc(C)cc(C)n1` [sulfometuron methyl], in the data set with Mtb, the “proliferation of the pathogen in the host's lungs” value is “significantly reduced proliferation”.

`COc1cc(O)c2c(=O)c(OC)c(-c3cccc(I)c3O)oc2c1OC` [Compound 1c] returned a melting point of 223.4 °C.

In the case of `COc1cc(O)c2c(=O)c(OC)c(-c3cccc(F)c3O)oc2c1OC` [Compound 1b], the melting point worked out at 208.6 °C.

Values taken from PMC9415896, “Total Synthesis of the Antimycobacterial Natural Product Chlorflavonin and Analogs via a Late-Stage Ruthenium(II)-Catalyzed ortho-C(sp^2)-H-Hydroxylation” (Pharmaceuticals, 2022).
